The text below walks through data of ChEMBL document CHEMBL1141459, “Kv7 (KCNQ) channel modulators and neuropathic pain” (J Med Chem, 2007).

pEC50: −log10 of the molar value.

Data set [1] is filed under the species Rattus norvegicus. In words: Analgesic activity in streptozotocin-induced diabetic rat model of pain. The following applies: read-out: MED. The class given is functional.
For data set [2], the system named is Rattus norvegicus. In words: Analgesic activity in SNL nerve injury in iv dosed rat model. The class given is functional. To be noted: for minimal effective dose: Rattus norvegicus, iv, read-out: MED.
Data set [3] has as its system Rattus norvegicus. Description: Analgesic activity in carrageenan model in po dosed rat model. The format is functional. To be noted: read-out: MED.
Data set [4] relates to Rattus norvegicus. In words: Analgesic activity in SNL nerve injury in po dosed rat model. The class given is functional.
For data set [5], the target named is Potassium voltage-gated channel subfamily KQT member 2 (Homo sapiens, UniProt O43526). In words: Activity at Kv 7.2 channel expressed in cloned CHO cells by [86Rb] efflux assay. The format is cell-based.
Data set [6] can be described thus: Activity at Kv.7 channel expressed in cloned CHO cells by patch clamp method. The format is cell-based.
The nature of data set [7]: Therapeutic index, ratio of ED50 in rotor rod test in rat to ED50 in rat kindling model of epileptic seizures. To be noted: read-out: TI.
Data set [8] deals with Rattus norvegicus. In words: Analgesic activity in formalin-induced pain hypersensitivity in po dosed rat. The format is functional.
The species entered for data set [9] is Rattus norvegicus. Description: Toxicity in rat by rotarod test. The class given is organism-based. The following applies: in vivo. Background: In the rotarod test animals must keep their balance on a rotating rod.
Data set [10] deals with Rattus norvegicus. Description: Analgesic activity in formalin-induced pain hypersensitivity in ip dosed rat. The format is functional.
Data set [11] deals with Rattus norvegicus. Description: Analgesic activity in CCI and SNL nerve injury in po dosed rat model of pain. The format is functional. The following applies: read-out: MED.
A short description of data set [12]: Therapeutic index, ratio of ED50 in rotor rod test in rat to ED50 in rat spinal nerve ligation model of neuropathic pain. The class given is organism-based. To be noted: in vivo, read-out: TI.

In general, ED50 refers to the dose at which the effect has come halfway, by size or by number of responders. A lower ED50 goes with greater potency. By pEC50 is commonly meant −log10 of the EC50, conventionally taken in molar units. Higher therefore signals a small EC50.

Chain of Potassium voltage-gated channel subfamily KQT member 2 (O43526 whole entry): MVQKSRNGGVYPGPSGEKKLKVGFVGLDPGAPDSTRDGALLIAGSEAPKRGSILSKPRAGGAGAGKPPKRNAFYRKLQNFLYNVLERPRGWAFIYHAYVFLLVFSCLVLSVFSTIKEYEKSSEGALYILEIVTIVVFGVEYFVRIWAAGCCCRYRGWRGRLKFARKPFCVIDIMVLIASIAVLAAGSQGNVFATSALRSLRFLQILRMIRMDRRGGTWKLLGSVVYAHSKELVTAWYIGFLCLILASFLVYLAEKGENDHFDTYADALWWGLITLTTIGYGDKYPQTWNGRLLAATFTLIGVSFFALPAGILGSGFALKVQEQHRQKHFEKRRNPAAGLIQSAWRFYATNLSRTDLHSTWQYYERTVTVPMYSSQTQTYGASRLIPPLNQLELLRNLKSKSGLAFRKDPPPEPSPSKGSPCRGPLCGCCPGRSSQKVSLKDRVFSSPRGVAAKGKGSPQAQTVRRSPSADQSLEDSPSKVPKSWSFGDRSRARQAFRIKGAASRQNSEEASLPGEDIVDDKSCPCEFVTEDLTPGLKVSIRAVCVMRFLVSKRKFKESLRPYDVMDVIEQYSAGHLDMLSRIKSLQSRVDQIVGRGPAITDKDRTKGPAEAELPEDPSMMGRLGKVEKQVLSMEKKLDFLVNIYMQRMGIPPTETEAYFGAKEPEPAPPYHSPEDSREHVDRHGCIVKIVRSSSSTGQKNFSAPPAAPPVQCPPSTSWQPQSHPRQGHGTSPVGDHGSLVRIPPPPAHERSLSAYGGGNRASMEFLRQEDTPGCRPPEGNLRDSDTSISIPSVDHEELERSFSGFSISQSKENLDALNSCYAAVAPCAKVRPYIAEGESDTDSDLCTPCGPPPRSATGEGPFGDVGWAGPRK

`C[C@H](NC(=O)/C=C/c1ccc(F)cc1)c1ccc(F)c(N2CCOCC2)c1`: the minimal effective dose in the data set filed under Rattus norvegicus [1] and in the data set with Rattus norvegicus [2] was 10 mg/kg throughout.

With `C[C@H](NC(=O)/C=C/c1ccccc1F)c1cccc(-n2cccn2)c1`, the minimal effective dose with Rattus norvegicus [2] came to 10 mg/kg.

Take `CC(NC(=O)c1sc(-c2ccccc2F)nc1C(F)(F)F)c1cccc(-c2cccc(OC(F)(F)F)c2)c1` (stereo unspecified): in the data set on Rattus norvegicus [2], the MED turned out to be 10 mg/kg and the minimal effective dose was determined as 10 mg/kg.

As for `C[C@H](NC(=O)/C=C/c1ccccc1F)c1cccc(Oc2cccnc2)c1`, the minimal effective dose in the data set on Rattus norvegicus [2] was 10 mg/kg.

On to `O=C(Nc1ccc(Cl)nc1)c1ccc(F)c(F)c1`, for which, in the data set on Rattus norvegicus [3], the minimal effective dose amounted to 30 mg/kg. The compound further showed an ED50 in the data set with Rattus norvegicus [4] of 25 mg/kg.

In the case of `CCOC(=O)Nc1ccc(NCc2ccc(F)cc2)cc1N` [EZOGABINE], the pEC50 was more than 6.82 in data set [5] and 6.00 in data set [6]. Moreover, the selectivity ratio worked out at 4 in data set [7] and 1.6 in data set [12]. Besides, the ED50 in the data set on Rattus norvegicus [8] was 47.6 mg/kg; in the data set filed under Rattus norvegicus [9], 40 mg/kg; in the data set with Rattus norvegicus [10] it was 6.6 mg/kg. Also, in the data set with Rattus norvegicus [11], the minimal effective dose worked out at 10 mg/kg.
